Measurements taken from patent US10343997B1, “Ursolic acid derivatives” (KING SAUD UNIVERSITY, priority 2018, dated 2019).

Key:
[1] = tested on: guinea-pig isolated ileum; test: Relaxation of electrically induced contraction of guinea-pig isolated ileum; assay type: cell-based; conditions: Cavia porcellus, stimulation 25V, 0.1 Hz, 5 ms, means ± s.e., n = 6, read-out: pIC50 (−log IC50) for relaxation of electrically induced contraction (converted)
Protocol: (§1) Male guinea-pigs, weighing between 200-400 g, were killed by a blow on the head after previously being deprived of food for 18 h but having had free access to water. The non-terminal part of the ileum was removed and cut into 20-mm long segments, which were suspended in an organ bath and connected to an isotonic transducer. The organ bath contained 50 mL physiological solution oxygenated with 95% O2 and 5% […] at 37° C. The physiological solution was typically normal saline with 0.9% sodium chloride. The fluid of the organ bath was changed every 15 min. The ileal segments were subjected to a resting tension of 0.5-1 g and left to equilibrate for 60 min.
Each segment was treated with only one compound. The pIC50 (−log IC50) value of each compound was calculated from concentration-response curves.

guinea-pig ileum = test: Calcium-induced contraction in K+-depolarized guinea-pig ileum; assay type: cell-based; conditions: 2×10^−9 M of compound; for Emax at 0.002 µM: Cavia porcellus, contraction induced by 3 mM calcium, 84.44% without antagonist, read-out: calcium-induced contractions, % of the maximum response
Protocol: as §1
As a control, increasing concentrations of CaCl2 (0.1, 0.3, 1, 3, 10 mmol) were added to an organ bath and the contractile response of the ileum was recorded. Tissues were then preincubated for 15-20 min with one concentration of each calcium channel blocker and increasing concentrations of CaCl2 were again added to the bathing media.
Response percentage ratios were calculated by dividing the percent of maximum responses induced by 3 mM calcium in the presence of each calcium-channel blocker at a concentration of 2×10^−9 M by the percent of maximum response induced by 3 mM calcium in the absence of any calcium-channel blocker.

[2] = target: voltage-dependent calcium channel; test: In vitro 3H-nitrendipine binding assay; conditions: competition with 3H-nitrendipine, plasma membrane from bovine cerebral cortices
rat isolated aorta = test: Relaxation of potassium-induced contraction of rat isolated aorta; assay type: cell-based; conditions: rat isolated aorta pre-contracted with 40 mM KCl; means ± s.e., n = 6; read-out: pIC50 (−log IC50) for relaxation of potassium-induced contraction (converted)
Protocol: Six white male rats were killed by a blow on the head and decapitation. The thoracic aorta of each rat was isolated, carefully dissected from the surrounding tissues, and cut into 5 segments, 3 mm in length. The segments were joined together, suspended in Krebs solution (composition in mmol: NaCl 118, KCl 4.8, CaCl2, 2.5, KH2PO4 1.2, MgSO4 1.2, NaHCO3 25 and glucose 10) at 37° C. and oxygenated with 95% O2 and 5% CO2. The fluid of the organ bath was changed every 15 min. The tissue was subject to a resting tension of 1 g and left to equilibrate for 1 h. The contractions of isolated aortic rings were recorded by means of a force transducer and Beckman physiograph. […] The pre-contracted tissue was then subject to increasing amounts of one of the calcium channel blockers added to the organ bath. The pIC50 value of each compound was calculated from concentration-response curves.

pithed rat = test: In vivo evaluation of calcium blockade in the pithed rat (cardio accelerator response)
Protocol: Calcium blockers in the pithed rat were calculated in vivo.
Male Sprague-Dawley rats (250-350 g) were anaesthetized with methohexitone sodium (50 mg/kg, intraperitoneal injection). Following cannulation of the trachea, the rats were pithed through one orbit with a stainless steel rod and immediately artificially respired with room air (78 strokes/min, 1 mil/100 g body weight) via a Palmer small animal respiration pump. A jugular vein was cannulated for administration of drugs. Arterial blood pressure was recorded from a carotid artery using a pressure transducer.
Heart rate was derived from the phasic arterial pressure signal with a phase lock loop ratemeter (BRL Instrument Services). […] The animals were kept warm by an incandescent lamp positioned about 25 cm above them. The pithing rod was withdrawn until the tip reached the thoracic portion of the spinal cord. All rats then received (+)tubocurarine (1.5 mg/kg, intravenously) and were bilaterally vagotomized.
The cardio accelerator response was obtained by continuous electrical stimulation of the thoracic spinal cord with square wave pulses of 0.5 ms duration, at supramaximal voltage at a frequency of 0.5 Hz using the pithing rod as a stimulating electrode. An indifferent electrode was inserted subcutaneously in the femoral region. Only rats with a resulting tachycardia of more than 100 beats/min were included in the experiments. When the cardio accelerator response was stabilized for about 3-5 min, cumulative intravenous doses of test drug or corresponding vehicle were administered. Successive doses were given when the response to the previous dose stabilized.
Doses of β-blockers or calcium-antagonists, which reduce the tachycardia to 50%, were tested again. Three minutes after administration of the drug, calcium gluconate (1 mg/min) or water (0.1 ml/min) was infused using a Harvard apparatus compact infusion pump.
The level of tachycardia immediately prior to drug administration was taken as 100% and responses to drugs were calculated as a percentage of the predose tachycardia. […] Significance of differences between the groups receiving calcium gluconate and their parallel vehicle controls were calculated by a Student's t-test.

cardiac function = conditions: background statement; cited from earlier work

| IC50 [1] | IC50 (rat isolated aorta) | SMILES | Emax at 0.002 µM (guinea-pig ileum) | effect on tachycardia elicited by electrical stimulation of the spinal cord (pithed rat; result in words) | further results |
| --- | --- | --- | --- | --- | --- |
| 0.347 nM | 0.0174 nM | COC(=O)C1=C(C)NC(C)=C(OC(C)=O)C1[C@]12CC[C@@H](C)[C@H](C)[C@H]1C1=CC[C@@H]3[C@@]4(C)CC[C@H](OC)C(C)(C)C4CC[C@@]3(C)[C@]1(C)CC2 (stereo partly shown) [Compound 4, Dihydropyridine-3,5-dicarboxylate Ursolic Acid Derivative] | 27% |  | Response percentage ratio (guinea-pig ileum; 3 mM calcium, response with blocker divided by response without): 0.15 ± 0.009; The affinity constant Ki [2]: 3.1 × 10^−13 mol/1; ID50 (pithed rat; inhibition of electrically induced tachycardia, cumulative intravenous doses): 71620 nM; calcium channel blocker selectivity in pithed rat assay (pithed rat; result in words): selective calcium channel blocker |
| 35.5 nM | 5.13 nM | COC(=O)C1=C(C)NC(C)=C(C(=O)OC)C1c1ccccc1[N+](=O)[O-] [Nifedipine, reference compound] | 74% |  |  |
|  |  | CCN(CC)CC(=O)Nc1c(C)cccc1C [lignocaine, reference compound] |  | no effect |  |
|  |  | O=C(NCCO[N+](=O)[O-])c1cccnc1 [nicorandil, reference compound] |  | no effect |  |
|  |  | C[C@H]1[C@H](C)CC[C@]2(C(=O)O)CC[C@]3(C)C(=CC[C@@H]4[C@@]5(C)CC[C@H](O)C(C)(C)[C@@H]5CC[C@]43C)[C@H]12 [ursolic acid] |  |  | heart rate decrease (cardiac function): 32% |
